According to ChEMBL document CHEMBL1128652, “Synthesis of the macrolide antibiotic, oxolide” (Bioorg Med Chem Lett, 1995):
The source made the active and inactive calls. The rule behind the calls is not given here.

Test system: Haemophilus influenzae
Test: Antibacterial activity against gram-negative bacteria, Haemophilus influenzae; A - found to be active
Format: functional, organism-based

In the case of `CC[C@H]1OC(=O)[C@H](C)[C@@H](O[C@H]2C[C@@](C)(OC)[C@@H](O)[C@H](C)O2)[C@H](C)[C@@H](O[C@@H]2O[C@H](C)C[C@H](N(C)C)[C@H]2O)[C@@](C)(O)C[C@@H](C)[C@@H]2O[C@]1(C)[C@@H](N)[C@H]2C`, the Activity was “Active”.
